Measurements as given in patent publication US8742106B2 (Novartis AG, priority 2009, dated 2014).

What was measured:
human orexin 1 receptors = human orexin 1 receptors (Homo sapiens (Human), UniProt O43613); test: Calcium Accumulation in Cells (FLIPR), antagonism of orexin A; assay type: cell-based; details: for inhibition at 10 µM: measured at a concentration of 10 μM of compound, read-out: FLIPR hOx1R % inhibition value; for Ki: antagonism of orexin A, Cheng-Prusoff corrected, read-out: FLIPR hOx1R Ki
human orexin 2 receptors = human orexin 2 receptors (Homo sapiens (Human), UniProt O43614); test: as above; assay type: cell-based; details: for Ki: antagonism of orexin A, Cheng-Prusoff corrected, read-out: FLIPR hOx2R Ki; for inhibition at 10 µM: measured at a concentration of 10 μM of compound, read-out: FLIPR hOx2R % inhibition value
Summary of the method: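 Antagonism was measured as block of orexin A-evoked Ca²⁺ fluorescence (FLIPR), with orexin A added one hour after test compound (usually 10^−9–10^−5 M), which was first read alone for agonist activity. Human orexin 2 receptor cells were dye-loaded with 2 μM Fluo4-AM and 0.1 mM probenecid for 1 h.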

Sequence of human orexin 1 receptors (O43613 whole entry): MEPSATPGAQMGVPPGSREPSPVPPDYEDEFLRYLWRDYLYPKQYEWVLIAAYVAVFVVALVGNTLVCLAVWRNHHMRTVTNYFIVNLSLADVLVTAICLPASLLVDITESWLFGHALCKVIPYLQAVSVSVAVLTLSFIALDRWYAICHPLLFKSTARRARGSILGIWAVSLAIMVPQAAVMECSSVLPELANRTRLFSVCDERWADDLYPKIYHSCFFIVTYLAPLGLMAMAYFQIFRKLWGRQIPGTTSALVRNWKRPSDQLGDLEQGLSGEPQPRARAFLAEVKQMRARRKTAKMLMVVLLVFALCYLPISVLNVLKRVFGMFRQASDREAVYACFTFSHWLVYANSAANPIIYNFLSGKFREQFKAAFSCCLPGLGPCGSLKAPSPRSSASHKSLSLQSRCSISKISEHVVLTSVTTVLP
Sequence of human orexin 2 receptors (O43614 whole entry): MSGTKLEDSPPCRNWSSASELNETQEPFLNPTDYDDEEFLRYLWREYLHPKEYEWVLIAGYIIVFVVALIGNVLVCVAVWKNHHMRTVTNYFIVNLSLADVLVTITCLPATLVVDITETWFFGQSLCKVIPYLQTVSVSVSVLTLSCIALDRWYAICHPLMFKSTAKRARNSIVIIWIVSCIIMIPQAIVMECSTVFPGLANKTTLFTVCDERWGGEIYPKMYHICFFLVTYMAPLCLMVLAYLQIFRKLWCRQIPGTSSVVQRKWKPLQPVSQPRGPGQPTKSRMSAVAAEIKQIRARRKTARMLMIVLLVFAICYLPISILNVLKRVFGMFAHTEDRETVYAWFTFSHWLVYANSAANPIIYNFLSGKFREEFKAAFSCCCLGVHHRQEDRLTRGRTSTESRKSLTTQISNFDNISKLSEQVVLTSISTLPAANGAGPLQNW

Compound	inhibition at 10 µM (human orexin 1 receptors)	Ki (human orexin 2 receptors)	inhibition at 10 µM (human orexin 2 receptors)	Ki (human orexin 1 receptors)
Cc1cc(OCC(=O)NC2CCc3cc(F)ccc32)nc2c1c(C1CC1)nn2C (centres unmarked) [Example 6.40, 2-(3-cyclopropyl-1,4-dimethyl-1H-pyrazolo[3,4-b]pyridin-6-yloxy)-N-(5-fluoro-2,3-dihydro-1H-inden-1-yl)acetamide]	21%	589 nM	–	–
Cc1cc(OCC(=O)NCC(C)C)nc2c1c(C1CC1)nn2C [Example 6.45, 2-(3-cyclopropyl-1,4-dimethyl-1H-pyrazolo[3,4-b]pyridin-6-yloxy)-N-isobutylacetamide]	20%	–	19%	–
Cc1cc(OCC(=O)NC2CCCC2)nc2c1c(C1CC1)nn2C [Example 6.46, N-cyclopentyl-2-(3-cyclopropyl-1,4-dimethyl-1H-pyrazolo[3,4-b]pyridin-6-yloxy)acetamide]	16%	–	26%	–
COc1ccc(C(C)NC(=O)COc2cc(C)c3c(C4CC4)nn(C)c3n2)cn1 (centres unmarked) [Example 6.47, 2-(3-cyclopropyl-1,4-dimethyl-1H-pyrazolo[3,4-b]pyridin-6-yloxy)-N-(1-(6-methoxypyridin-3-yl)ethyl)acetamide]	–	747 nM	–	1490 nM
Cc1cc(OCC(=O)NC(C)c2cc(CC(C)(C)C)on2)nc2c1c(C1CC1)nn2C (centres unmarked) [Example 6.48, 2-(3-cyclopropyl-1,4-dimethyl-1H-pyrazolo[3,4-b]pyridin-6-yloxy)-N-(1-(5-neopentylisoxazol-3-yl)ethyl)acetamide]	< 10%	–	< 10%	–
Cc1cc(OCC(=O)NCCc2ccccc2)nc2c1c(C1CC1)nn2C [Example 6.49, 2-(3-cyclopropyl-1,4-dimethyl-1H-pyrazolo[3,4-b]pyridin-6-yloxy)-N-phenethylacetamide]	21%	611 nM	–	–
Cc1cc(OCC(=O)NCCCc2ccccc2)nc2c1c(C1CC1)nn2C [Example 6.50, 2-(3-cyclopropyl-1,4-dimethyl-1H-pyrazolo[3,4-b]pyridin-6-yloxy)-N-(3-phenylpropyl)acetamide]	10%	–	42%	–
COc1ccc([C@H](C)N(C)C(=O)COc2cc(C)c3c(C4CC4)nn(C)c3n2)cc1 [Example 6.51]	26%	575 nM	–	–
CNC(=O)COc1cc(C)c2c(C3CC3)nn(C)c2n1 [Example 6.52]	< 10%	–	< 10%	–
Cc1cc(OCC(=O)NC(C)C2CC2)nc2c1c(C1CC1)nn2C (centres unmarked) [Example 6.53]	17%	–	38%	–
CCn1ccc(C(C)NC(=O)COc2cc(C)c3c(C4CC4)nn(C)c3n2)n1 (centres unmarked) [Example 6.54]	44%	–	29%	–
Cc1ccc(C(C)NC(=O)COc2cc(C)c3c(C4CC4)nn(C)c3n2)cn1 (centres unmarked) [Example 6.55]	53%	525 nM	–	–
Cc1cc(OCC(=O)N[C@@H](C)C2CCCC2)nc2c1c(C1CC1)nn2C [Example 6.56, (S)-N-(1-cyclopentylethyl)-2-(3-cyclopropyl-1,4-dimethyl-1H-pyrazolo[3,4-b]pyridin-6-yloxy)acetamide]	< 10%	–	< 10%	–
Cc1cc(OCC(=O)NC(C)c2ccc3c(c2)ncn3C)nc2c1c(C1CC1)nn2C (centres unmarked) [Example 6.58, 2-(3-cyclopropyl-1,4-dimethyl-1H-pyrazolo[3,4-b]pyridin-6-yloxy)-N-(1-(1-methyl-1H-benzo[d]imidazol-5-yl)ethyl)acetamide]	–	382 nM	–	1010 nM
Cc1ccc([C@H](C)NC(=O)COc2nc3c(cc2C)c(C2CC2)nn3C)cc1 [Example 6.60, (S)-2-(3-cyclopropyl-1,5-dimethyl-1H-pyrazolo[3,4-b]pyridin-6-yloxy)-N-(1-p-tolylethyl)acetamide]	11%	1170 nM	–	–
COc1ccc(C(C)(C)NC(=O)COc2cc(C)c3c(C4CC4)nn(C)c3n2)cc1 [Example 6.62, 2-(3-cyclopropyl-1,4-dimethyl-1H-pyrazolo[3,4-b]pyridin-6-yloxy)-N-(2-(4-methoxyphenyl)propan-2-yl)acetamide]	–	160 nM	–	626 nM
Cc1cc2c(cn1)[C@@H](NC(=O)COc1cc(C)c3c(C4CC4)nn(C)c3n1)CC2 [Example 6.64, (S)-2-(3-cyclopropyl-1,4-dimethyl-1H-pyrazolo[3,4-b]pyridin-6-yloxy)-N-(3-methyl-6,7-dihydro-5H-cyclopenta[c]pyridin-7-yl)acetamide]	–	93 nM	–	783 nM

Compound	inhibition at 10 µM (human orexin 1 receptors)	Ki (human orexin 2 receptors)	inhibition at 10 µM (human orexin 2 receptors)	Ki (human orexin 1 receptors)
Cc1cnc2c(c1)CC[C@@H]2NC(=O)COc1cc(C)c2c(C3CC3)nn(C)c2n1 [Example 6.65, (S)-2-(3-cyclopropyl-1,4-dimethyl-1H-pyrazolo[3,4-b]pyridin-6-yloxy)-N-(3-methyl-6,7-dihydro-5H-cyclopenta[b]pyridin-7-yl)acetamide]	< 10%	825 nM	–	–
Cc1ccc(CNC(=O)COc2cc(C)c3c(C4CC4)nn(C)c3n2)cc1 [Example 6.66, 2-(3-cyclopropyl-1,4-dimethyl-1H-pyrazolo[3,4-b]pyridin-6-yloxy)-N-(4-methylbenzyl)acetamide]	–	1300 nM	–	3890 nM
COc1ccc(CNC(=O)COc2cc(C)c3c(C4CC4)nn(C)c3n2)cc1 [Example 6.67, 2-(3-cyclopropyl-1,4-dimethyl-1H-pyrazolo[3,4-b]pyridin-6-yloxy)-N-(4-methoxybenzyl)acetamide]	29%	–	40%	–
Cc1cc(OCC(=O)N[C@H]2CCc3cc(OC(C)C)ccc32)nc2c1c(C1CC1)nn2C [Example 6.69, (S)-2-(3-cyclopropyl-1,4-dimethyl-1H-pyrazolo[3,4-b]pyridin-6-yloxy)-N-(5-isopropoxy-2,3-dihydro-1H-inden-1-yl)acetamide]	–	–	31%	126 nM
COc1ccc([C@H](C)NC(=O)C(C)Oc2cc(C)c3c(C4CC4)nn(C)c3n2)cc1 (stereo partly drawn) [Example 6.70, 2-(3-cyclopropyl-1,4-dimethyl-1H-pyrazolo[3,4-b]pyridin-6-yloxy)-N-((S)-1-(4-methoxyphenyl)ethyl)propanamide]	–	1070 nM	–	1060 nM
COc1ccc([C@H](C)NC(=O)COc2nc3c(c(C4CC4)nn3C)c(C)c2C)cc1 [Example 6.74, (S)-2-(3-cyclopropyl-1,4,5-trimethyl-1H-pyrazolo[3,4-b]pyridin-6-yloxy)-N-(1-(4-methoxyphenyl)ethyl)acetamide]	23%	–	38%	–
Cc1ccc([C@H](C)NC(=O)COc2nc3c(c(C4CC4)nn3C)c(C)c2C)cc1 [Example 6.75, (S)-2-(3-cyclopropyl-1,4,5-trimethyl-1H-pyrazolo[3,4-b]pyridin-6-yloxy)-N-(1-p-tolylethyl)acetamide]	–	567 nM	–	1750 nM
COc1ccc([C@H](C)NC(=O)COc2nc3c(cc2C)c(C2CC2)nn3C)cc1 [Example 6.76, (S)-2-(3-cyclopropyl-1,5-dimethyl-1H-pyrazolo[3,4-b]pyridin-6-yloxy)-N-(1-(4-methoxyphenyl)ethyl)acetamide]	23%	–	34%	–
C[C@H](NC(=O)COc1cc(C(F)(F)F)c2c(-c3ccccc3)noc2n1)c1ccccc1 [Example 6.78, (S)-2-(3-phenyl-4-(trifluoromethyl)isoxazolo[5,4-b]pyridin-6-yloxy)-N-(1-phenylethyl)acetamide]	43%	1830 nM	–	–
Cc1cnc(CNC(=O)COc2cc(C)c3c(C4CC4)nn(C)c3n2)cn1 [Example 7.2, 2-(3-cyclopropyl-1,4-dimethyl-1H-pyrazolo[3,4-b]pyridin-6-yloxy)-N-((5-methylpyrazin-2-yl)methyl)acetamide]	< 10%	–	15%	–
Cc1cc(OCC(=O)NCCCn2ccnc2)nc2c1c(C1CC1)nn2C [Example 7.3, N-(3-(1H-imidazol-1-yl)propyl)-2-(3-cyclopropyl-1,4-dimethyl-1H-pyrazolo[3,4-b]pyridin-6-yloxy)acetamide]	< 10%	–	16%	–
Cc1cc(OCC(=O)NCc2ccc3c(c2)CCO3)nc2c1c(C1CC1)nn2C [Example 7.4, 2-(3-cyclopropyl-1H-dimethyl-1H-pyrazolo[3,4-b]pyridin-6-yloxy)-N-((2,3-dihydrobenzofuran-5-yl)methyl)acetamide]	< 10%	–	26%	–
Cc1cc(OCC(=O)NCCc2c[nH]c3ccccc23)nc2c1c(C1CC1)nn2C [Example 7.5, N-(2-(1H-indol-3-yl)ethyl)-2-(3-cyclopropyl-1H-dimethyl-1H-pyrazolo[3,4-b]pyridin-6-yloxy)acetamide]	< 10%	479 nM	–	–
Cc1cc(OCC(=O)NCC2CCCCC2)nc2c1c(C1CC1)nn2C [Example 7.6, N-(cyclohexylmethyl)-2-(3-cyclopropyl-1,4-dimethyl-1H-pyrazolo[3,4-b]pyridin-6-yloxy)acetamide]	18%	–	< 10%	–
Cc1cccc(C(C)NC(=O)COc2cc(C)c3c(C4CC4)nn(C)c3n2)n1 (centres unmarked) [Example 7.7, 2-(3-cyclopropyl-1,4-dimethyl-1H-pyrazolo[3,4-b]pyridin-6-yloxy)-N-(1-(6-methylpyridin-2-yl)ethyl)acetamide]	32%	–	21%	–
Cc1cc(OCC(=O)NC2CCCc3ncccc32)nc2c1c(C1CC1)nn2C (centres unmarked) [Example 7.8, 2-(3-cyclopropyl-1H-dimethyl-1H-pyrazolo[3,4-b]pyridin-6-yloxy)-N-(5,6,7,8-tetrahydroquinolin-5-yl)acetamide]	26%	–	20%	–
COc1ccc2c(c1)C(NC(=O)COc1cc(C)c3c(C4CC4)nn(C)c3n1)CC2 (centres unmarked) [Example 7.9, 2-(3-cyclopropyl-1,4-dimethyl-1H-pyrazolo[3,4-b]pyridin-6-yloxy)-N-(6-methoxy-2,3-dihydro-1H-inden-1-yl)acetamide]	–	742 nM	–	877 nM
